From ChEMBL document CHEMBL3044789, “Comparing weed and crop seedling response to pre-emergence pendimethalin application in Corchorus olitorius and Abelmoschus esculentus” (Crop Prot, 2006)

Legend:
[1] = test system: Corchorus olitorius; assay: Phytotoxicity in Corchorus olitorius assessed as seedling emergence at 0.99 kg a.i/ha treated to soil after 7 weeks (reference value: 95 +/- 0.05 %); type: organism-based; details: in vivo, other, 1176 h
[2] = test system: Euphorbia heterophylla; assay: Herbicidal activity against Euphorbia heterophylla in Abelmoschus esculentus plots assessed as major weed growth at 0.99 kg a.i/ha after 2 weeks; type: functional
[3] = test system: Calopogonium mucunoides; assay: Herbicidal activity against Calopogonium mucunoides in Corchorus olitorius plots assessed as weed cover at 1.32 kg a.i/ha after 4 weeks (reference value: 20.1+/- 0.57 %); type: functional
[4] = test system: Abelmoschus esculentus; assay: Phytotoxicity in Abelmoschus esculentus assessed as shoot length at 0.99 kg a.i/ha applied as solution after 7 weeks (reference value: 28.7 +/- 0.34 mm); type: organism-based; details: in vivo, other, 1176 h
[5] = test system: Rottboellia cochinchinensis; assay: Herbicidal activity against Rottboellia cochinchinensis in Corchorus olitorius plots assessed as weed recovery at 0.33 kg a.i/ha after 2 weeks (reference value: 78.3 +/- 0.74 %); type: functional
[6] = test system: Euphorbia heterophylla; assay: Herbicidal activity against Euphorbia heterophylla in Corchorus olitorius plots assessed as major weed growth at 1.32 kg a.i/ha after 2 weeks; type: functional
[7] = test system: Cyperus rotundus; assay: Herbicidal activity against Cyperus rotundus in Corchorus olitorius plots assessed as weed cover at 0.66 kg a.i/ha after 2 weeks (reference value: 81.7 +/- 0.43 %); type: functional
[8] = test system: Calopogonium mucunoides; assay: Herbicidal activity against Calopogonium mucunoides in Abelmoschus esculentus plots assessed as weed cover at 1.32 kg a.i/ha after 7 weeks (reference value: 14.7 +/- 0.46 %); type: functional
[9] = test system: Chromolaena odorata; assay: Herbicidal activity against Chromolaena odorata in Corchorus olitorius plots assessed as weed recovery at 0.99 kg a.i/ha after 2 weeks (reference value: 78.3 +/- 0.74 %); type: functional
[10] = test system: Synedrella nodiflora; assay: Herbicidal activity against Synedrella nodiflora in Abelmoschus esculentus plots assessed as weed cover at 0.66 kg a.i/ha after 7 weeks (reference value: 14.7 +/- 0.46 %); type: functional
[11] = test system: Asteraceae; assay: Herbicidal activity against Aspilia africana in Corchorus olitorius plots assessed as weed recovery at 0.66 kg a.i/ha after 2 weeks (reference value: 78.3 +/- 0.74 %); type: functional
[12] = test system: Synedrella nodiflora; assay: Herbicidal activity against Synedrella nodiflora in Abelmoschus esculentus plots assessed as weed recovery at 1.32 kg a.i/ha after 2 weeks (reference value: 60.1 +/- 0.46 %); type: functional
[13] = test system: Abelmoschus esculentus; assay: Phytotoxicity in Abelmoschus esculentus assessed as root length at 1.32 kg a.i/ha treated to soil after 7 weeks (reference value: 2.9 +/- 0.45 mm); type: organism-based; details: in vivo, other, 1176 h
[14] = test system: Synedrella nodiflora; assay: Herbicidal activity against Synedrella nodiflora in Corchorus olitorius plots assessed as weed recovery at 0.99 kg a.i/ha after 2 weeks (reference value: 78.3 +/- 0.74 %); type: functional
[15] = test system: Ageratum conyzoides; assay: Herbicidal activity against Ageratum conyzoides in Abelmoschus esculentus plots assessed as weed recovery at 1.32 kg a.i/ha after 2 weeks (reference value: 60.1 +/- 0.46 %); type: functional
[16] = test system: Corchorus olitorius; assay: Phytotoxicity in Corchorus olitorius assessed as shoot length at 0.99 kg a.i/ha treated to soil after 7 weeks (reference value: 23.7 +/- 0.10 mm); type: organism-based; details: in vivo, other, 1176 h
[17] = test system: Synedrella nodiflora; assay: Herbicidal activity against Synedrella nodiflora in Abelmoschus esculentus plots assessed as weed cover at 1.32 kg a.i/ha after 2 weeks (reference value: 63.5 +/- 0.29 %); type: functional
[18] = test system: Euphorbia heterophylla; assay: Herbicidal activity against Euphorbia heterophylla in Corchorus olitorius plots assessed as weed cover at 0.99 kg a.i/ha after 2 weeks (reference value: 81.7 +/- 0.43 %); type: functional
[19] = test system: Euphorbia heterophylla; assay: Herbicidal activity against Euphorbia heterophylla in Abelmoschus esculentus plots assessed as weed recovery at 0.33 kg a.i/ha after 2 weeks (reference value: 60.1 +/- 0.46 %); type: functional
[20] = test system: Abelmoschus esculentus; assay: Phytotoxicity in Abelmoschus esculentus assessed as seedling injury at 1.32 kg a.i/ha applied as solution after 7 weeks relative to control; type: organism-based; details: in vivo, other, 1176 h
[21] = test system: Synedrella nodiflora; assay: Herbicidal activity against Synedrella nodiflora in Corchorus olitorius plots assessed as weed cover at 0.33 kg a.i/ha after 2 weeks (reference value: 81.7 +/- 0.43 %); type: functional
[22] = test system: Abelmoschus esculentus; assay: Phytotoxicity in Abelmoschus esculentus assessed as seed germination at 0.66 kg a.i/ha applied as solution after 7 weeks (reference value: 85.7 +/- 0.36 %); type: organism-based; details: in vivo, other, 1176 h
[23] = test system: Calopogonium mucunoides; assay: Herbicidal activity against Calopogonium mucunoides in Corchorus olitorius plots assessed as weed recovery at 0.66 kg a.i/ha after 2 weeks (reference value: 78.3 +/- 0.74 %); type: functional
[24] = test system: Abelmoschus esculentus; assay: Phytotoxicity in Abelmoschus esculentus assessed as root length at 0.99 kg a.i/ha applied as solution after 7 weeks (reference value: 23 +/- 0.34 mm); type: organism-based; details: in vivo, other, 1176 h
[25] = test system: Euphorbia heterophylla; assay: Herbicidal activity against Euphorbia heterophylla in Corchorus olitorius plots assessed as weed cover at 1.32 kg a.i/ha after 2 weeks (reference value: 81.7 +/- 0.43 %); type: functional
[26] = test system: Talinum fruticosum; assay: Herbicidal activity against Talinum fruticosum in Corchorus olitorius plots assessed as weed cover at 0.99 kg a.i/ha after 4 weeks (reference value: 20.1+/- 0.57 %); type: functional
[27] = test system: Euphorbia heterophylla; assay: Herbicidal activity against Euphorbia heterophylla in Abelmoschus esculentus plots assessed as weed recovery at 0.99 kg a.i/ha after 2 weeks (reference value: 60.1 +/- 0.46 %); type: functional
[28] = test system: Abelmoschus esculentus; assay: Phytotoxicity in Abelmoschus esculentus assessed as crop seedling injury at 1.32 kg a.i/ha after 2 weeks relative to untreated control; type: organism-based; details: in vivo, 336 h
[29] = test system: Synedrella nodiflora; assay: Herbicidal activity against Synedrella nodiflora in Abelmoschus esculentus plots assessed as weed cover at 0.33 kg a.i/ha after 4 weeks (reference value: 22.6 +/- 0.49 %); type: functional
[30] = test system: Cyperus rotundus; assay: Herbicidal activity against Cyperus rotundus in Abelmoschus esculentus plots assessed as weed cover at 0.66 kg a.i/ha after 4 weeks (reference value: 22.6 +/- 0.49 %); type: functional
[31] = test system: Abelmoschus esculentus; assay: Phytotoxicity in Abelmoschus esculentus assessed as shoot length at 0.33 kg a.i/ha applied as solution after 7 weeks (reference value: 28.7 +/- 0.34 mm); type: organism-based; details: in vivo, other, 1176 h
[32] = test system: Calopogonium mucunoides; assay: Herbicidal activity against Calopogonium mucunoides in Corchorus olitorius plots assessed as minor weed growth at 0.66 kg a.i/ha after 2 weeks; type: functional
[33] = test system: Calopogonium mucunoides; assay: Herbicidal activity against Calopogonium mucunoides in Corchorus olitorius plots assessed as weed cover at 0.33 kg a.i/ha after 4 weeks (reference value: 20.1+/- 0.57 %); type: functional
[34] = test system: Euphorbia heterophylla; assay: Herbicidal activity against Euphorbia heterophylla in Abelmoschus esculentus plots assessed as weed cover at 0.66 kg a.i/ha after 2 weeks (reference value: 63.5 +/- 0.29 %); type: functional
[35] = test system: Corchorus olitorius; assay: Phytotoxicity in Corchorus olitorius assessed as shoot length at 0.33 kg a.i/ha treated to soil after 7 weeks (reference value: 23.7 +/- 0.10 mm); type: organism-based; details: in vivo, other, 1176 h
[36] = test system: Mimosa pudica; assay: Herbicidal activity against Mimosa pudica in Abelmoschus esculentus plots assessed as weed recovery at 0.33 kg a.i/ha after 2 weeks (reference value: 60.1 +/- 0.46 %); type: functional

## CCC(CC)Nc1c([N+](=O)[O-])cc(C)c(C)c1[N+](=O)[O-] [PENDIMETHALIN]
[1]
  Activity: 86.7%
[2]
  Activity: 31 /m2
[3]
  Activity: 33.3%
[4]
  Activity: 14.7 mm
[5]
  Activity: 31.7%
[6]
  Activity: 31 /m2
[7]
  Activity: 51.7%
[8]
  Activity: 82.4%
[9]
  Activity: 21.7%
[10]
  Activity: 90%
[11]
  Activity: 33.3%
[12]
  Activity: 33.2%
[13]
  Activity: 1.5 mm
[14]
  Activity: 21.7%
[15]
  Activity: 33.2%
[16]
  Activity: 22.5 mm
[17]
  Activity: 45%
[18]
  Activity: 51.7%
[19]
  Activity: 39.2%
[20]
  Activity: 56.8%
[21]
  Activity: 63.3%
[22]
  Activity: 46%
[23]
  Activity: 33.3%
[24]
  Activity: 11.8 mm
[25]
  Activity: 41.7%
[26]
  Activity: 48.3%
[27]
  Activity: 36.2%
[28]
  Activity: 53.8%
[29]
  Activity: 53.8%
[30]
  Activity: 47.9%
[31]
  Activity: 14.5 mm
[32]
  Activity: 1 /m2
[33]
  Activity: 73.3%
[34]
  Activity: 50.8%
[35]
  Activity: 18.8 mm
[36]
  Activity: 39.2%
